Target: SARS-CoV 3CL^pro (Severe acute respiratory syndrome coronavirus, UniProt P0C6X7)
Format: biochemical

SMILES | Inhibition type | V max [intensity min^−1] | fold smaller IC50 value compared with that of reference compounds [fold]
CC1=C(O)C(=O)C=C2C1=CC=C1[C@@]2(C)CC[C@@]2(C)[C@@H]3C[C@](C)(C(=O)O)CC[C@]3(C)CC[C@]12C [Compound 1, celastrol] | Competitive (4.2 ± 0.6) |  | 
COC(=O)[C@]1(C)CC[C@]2(C)CC[C@]3(C)C4=CC=C5C(=CC(=O)C(O)=C5C)[C@]4(C)CC[C@@]3(C)[C@@H]2C1 [Compound 2, pristimerin] | Competitive (3.1 ± 0.0) |  | 
CC1=C(O)C(=O)C=C2C1=CC=C1[C@@]2(C)CC[C@@]2(C)[C@@H]3C[C@@H](C)C(=O)C[C@]3(C)CC[C@]12C [Compound 3, tingenone] | Competitive (4.0 ± 0.1) |  | 
CC1=CC[C@]2(C)CC[C@]3(C)C4=CC=C5C(=CC(=O)C(O)=C5C)[C@]4(C)CC[C@@]3(C)[C@@H]2C1 [Compound 4, iguesterin] | Competitive (0.8 ± 0.2) | 44.4 ± 6.2 | 10
